In patent publication US11680264B2, “Methods of modulating melanosome pH and melanin level in cells” (Cornell University, priority 2016, dated 2023):

Legend:
sAC^KO mouse melanocytes = assay: LysoSensor Yellow/Blue DND-160 organelle pH assay; format: cell-based; conditions: 30 μM, 4 hours
Protocol: (§1) To determine the pH of the sAC^KO and sAC^FF melanocytes the pH-sensitive vital dye LysoSensor Yellow/Blue DND-160 (Bellono et al. Sci Rep., 6:26570 (2016)) was used. Briefly, cells were incubated with 1 μM LysoSensor DND-160 (Invitrogen) for 5 minutes at 37° C. Lysosensor was excited at 405 nm and its emission detected at 417-483 nm (W1) and 490-530 nm (W2). The ratio of emissions (W1/W2) in Lysosensor-stained puncta was assigned to a pH value based on a calibration curve generated for each experiment using solutions containing 125 mM KCl, 25 mM NaCl, 24 μM monensin, and varying concentrations of MES to adjust the pH to 4, 4.5, 5.0, 5.5, 6.0, 6.5, 7.0, 7.5. The fluorescence ratio was linear for pH 5.0-7.0.
as §1, with “The effect” for “To determine the pH”, “pharmacologic inhibition of sAC was examined using” for “the sAC^KO and sAC^FF melanocytes”, “vial” for “vital”, “assay, described above.” for “(Bellono et al. Sci Rep., 6:26570 (2016)) was used.”, “Briefly, cultured sAC^FF melanocytes were treated for 4 hours with 30 μM KH7, 30 μM LRE1, or control (untreated). The” for “Briefly,”

sAC^FF mouse melanocytes = assay: LysoSensor Yellow/Blue DND-160 organelle pH assay; format: cell-based; conditions: 30 μM, 4 hours
Protocol: as §1
as §1, with “The effect” for “To determine the pH”, “pharmacologic inhibition of sAC was examined using” for “the sAC^KO and sAC^FF melanocytes”, “vial” for “vital”, “assay, described above.” for “(Bellono et al. Sci Rep., 6:26570 (2016)) was used.”, “Briefly, cultured sAC^FF melanocytes were treated for 4 hours with 30 μM KH7, 30 μM LRE1, or control (untreated). The” for “Briefly,”

human melanocytes = assay: DAMP melanosome pH assay (HMB45 co-staining); format: cell-based; conditions: 4 hours, KH7 30 μM, cAMP 500 μM, H89 10 μM, ESI-09 10 μM
Protocol: N-{3-[(2,4-dinitrophenyl)amino]propyl}-N-(3-aminopropyl)methylamine dihydrochloride (DAMP) is a weakly basic amine that is taken up in acidic organelles of live cells and which has been used to measure melanosome pH (Bin et al., PLOS One, 10(6):e0129273 (2015); Tabata et al., Cell Tissue Res., 332(3): 447-460 (2008)). Cells were cultured on sterile glass coverslips in 24-mm wells at 50×10^3 cells/coverslip. […] After permeabilization with 0.1% Triton X-100 in Buffer A at −20° C., the cells were labeled with the supplied anti-DNP antibody (Oxford Biomedical Research) according to kit protocol. Melanosomes were identified using the monoclonal antibody (anti-HMB45, 1:40, Santa Cruz Biotechnology). Fluorescence was detected after secondary staining with Alexa Fluor 546 donkey anti-goat IgG antibody (Invitrogen) and Alexa Fluor 647 donkey anti-mouse IgG antibody (Invitrogen). All quantitative analyses were performed using the Object Count tool in Nikon AR 4.60. For each image, the lower intensity threshold limit of each fluorescence channel was defined as the intensity of the dimmest punctum returned using the 3 points circle threshold tool. The upper intensity threshold limit was set to the maximum value. Equivalent diameter (EqDiameter) was restricted to 1.85-30.00 pixels. Circularity was restricted to 0.20-1.00. Mean fluorescence intensity was measured for all DAMP^+ puncta. Melanosomes were identified as HMB45^+ puncta. DAMP measurements were only recorded when colocalized with HMB45. Frequency distributions were generated for each sample from mean DAMP fluorescence intensity of DAMP^+ melanosomes. All analyses were performed on two replicate coverslips (n≥15 cells per coverslip). Melanosomes were first identified as TRP1^+ or tyrosinase^+ puncta. sAC^+ melanosomes were identified as R52^+ or R21^+ puncta colocalizing with TRP1^+ or tyrosinase^+ puncta. The degree of colocalization between sAC and melanosomes was calculated as the number of sAC+ melanosomes divided by the total number of melanosomes and expressed as a percentage.
The effect of sAC inhibition on melanosome pH was also assessed in human melanocytes.

C3H/HeJ mice = assay: Topical treatment of ear, epidermal pigmentation (Fontana Masson); format: in vivo, mouse; conditions: topical on right ear, twice a day for two weeks
Protocol: Melanocytes also exist in the epidermis at specific areas of mouse skin (e.g., pinnae) (Nordlund et al., Dermatol Clin., 4(3): 407-418 (1986)); thus, these areas were studied to examine the role of sAC in epidermal pigmentation. For analysis of epidermal pigmentation, using C3H/HeJ mice as above, 20 μl of KH7 ([…]), LRE1 (28 mg/ml) or DMSO (vehicle control) was topically applied on the right ear and DMSO was topically applied on the left ear twice a day for two weeks. Ear skin was monitored daily for irritation and changes in pigmentation. After two weeks, mice were euthanized and the treated skin was submitted to a blinded animal pathologist for histological evaluation of the epidermis and special stains (Fontana Masson). This experiment was performed twice with 3 mice per cohort (total n=6)

CC(Sc1nc2ccccc2[nH]1)C(=O)N/N=C/c1cc(Br)ccc1O (centres unmarked) [KH7]
pH of LysoSensor-visualized organelles (sAC^KO mouse melanocytes): had no effect | pH of LysoSensor-visualized organelles (sAC^FF mouse melanocytes): induced an alkaline pH shift | melanosome pH (DAMP), substance alone (human melanocytes): alkaline shift in melanosome pH | colour of ear epidermis relative to vehicle control (C3H/HeJ mice; 20 μl KH7 or LRE1 (28 mg/ml)): induced visual darkening of mouse ear epidermis | epidermal melanin accumulation (Fontana Masson) (C3H/HeJ mice): increase in epidermal melanin accumulation
